Assay results reported in patent EP1792623B1, “Use of extracts and constituents of leontopodium as enhancers of cholinergic function” (Leopold-Franzens-Universität Innsbruck, priority 2005, dated 2007).
Where a name gives a salt, the structure may show the parent alone.

Key:
acetylcholinesterase = type: biochemical; details: 100 µM, after 60 min, in comparison to medium control, n=4
Method: Experiments are carried out applying Ellman's method in a 96-well microplate assay described by Ingkaninan et al, Journal of Chromatography A 827 (2000) p. 6173 and Rhee et al, Journal of Chromatography A 915 (2001) p. 217-223. In addition to buffer A described above, a buffer containing 0.1 M NaCl and 0.02 M MgClx2.6 H2O in buffer A is used for preparing a 3 mM solution of DTNB. For the microplate assay the substrate ATCI is dissolved 15 mM in water (HPLC grade). The enzyme stock solution is diluted with buffer A to get 0.22 U/ml. In the 96-well plates, 25 µl of 15 mM ATCl, 125 µl of 3 mM DTNB, 50 µl of buffer A, and 25 µl of sample (10 mM in MeOH, respectively DMSO (dimethylsulfoxide), diluted ten times with buffer A) are added. […] […] The absorbance of the product (2-nitrobenzoate-5-mercapto thioline) is measured at 405 nm with a Chameleon 5025 (Hidex, Finland) microplate reader 0, 15, 30, 45 and 60 minutes after adding 25 µl of 0.22 U/ml acetylcholinesterase-solution to the reaction mixture. All experiments are performed 4 times (n=4) and the data are statistically processed using the SPSS 11.5 program package. Percentage of inhibition is calculated by comparing the rates for the sample to the blank (10% MeOH, resp. DMSO, in buffer).

[1] = test system: C56BL/6N female, 3-month mice; assay: Object recognition task (scopolamine-induced learning deficit); type: in vivo
Method: (§1) Animals: C56BL/6N female, 3-month mice, weighing 20 - 27 g, were used in the present study. The animals were housed in groups of six to ten in cages (40 (L) x 25 (W) x 15 (H) cm) placed in a room at a constant temperature (22±1 °C), 12-light/ 12-dark cycle (07:00-19:00 h), with food and water ad libitum. Experiments were conducted between 09:00 and 16:00h.
(§2) Surgery: Mice were anaesthetized with Pentobarbital sodium (60 mg/kg, i.p.) and placed in a stereotaxic frame. A guide cannula (gauge 25, o.d. 0.52 mm, i.d, 0.26 mm and 7 mm long) was stereotaxically implanted through a hole on the skull into the brain area 0.5 mm higher than the third cerebral ventricle (-0.1 mm posterior, 0.8 mm lateral to bregma, -2.2 mm ventral to the dura) (Franklin KBJ, Paxinos G (1997) The mouse brain in stereotaxic coordinates. Academic Press San Diego). Guide cannula was secured to the skull using two small screws and dental cement. The microinjector (Hamilton gauge 32, o.d. 0.24 mm and i.d. 0.11 mm, 7.5 mm long) protruded 0.5 mm from the tip of the guide cannula to reach the cerebral ventricle. Mice recovered for 5 days before any experimentation was done.
(§3) Drugs: Scopolamine hydrobromide (Sigma, St. Louis, MO, U.S.A.) was dissolved in saline. Isocomene was dissolved in vehicle solution (3 parts DMSO : 7 parts sterile water). The animals were randomly divided into experimental groups and administered a cerebral ventricle injection of saline, scopolamine, isocomene or scopolamine and isocomene in a volume µl during 1 min. The injector was left in place an extra 1 min for drug diffusion after injection. These substances and vehicle were injected 15 min prior to the test.
Experimental design and drug application: Animals were randomly divided into […] experimental groups (6-9 mice per group) as follows: vehicle; scopolamine hybrobromide 20 µg (50 nmol) in 1µl ICV, isocomene 8.16 µg (40 nmol) in 2µl ICV, and scopolamine hybrobromide 20 µg plus isocomene 2 µg ICV. All substances were injected 15 min before the test (T-maze and open field) or before the training trial T1 (object recognition test) through the 7.5 mm long injector connected with i.d. 0.28 mm polyethylene tubing to 5 µl Hamilton syringe.
Apparatus: The test apparatus consisted of a box made of Plexiglas (40 (L) x 25 (W) x 15 (H) cm), which was illuminated by a lamp above the box. In the different parts of the apparatus, the light intensity was equal at 100 lux. The objects to be discriminated were made of plastic or metal, were in the different shapes: cubes and cylinders 1.5-cm high in white or green colour; they could not be displaced by mice. In addition, these objects had no genuine significance for mice and had never been associated with a reinforcement.
Procedure: The object recognition test was performed as described elsewhere (Ennaceur A, Delacour J (1988) A new one-trial test for neurobiological studies of memory in rats. 1: Behavioural data. Behav Brain Res. 31: 47-59). On the day before testing, the animals were allowed to explore the apparatus for 10 min (without objects), while on the testing day, a session of two 10-min trials was given. During the training trial (sample trial) (T1), two identical objects were placed opposite sides 8 cm from the short walls. A mouse was placed in the middle of apparatus and was left to explore these two identical objects in 10 min. After T1, the mouse was put back in its home cage and a 24-hour inter-trial interval was given. […]

[2] = test system: C56BL/6N female, 3-month mice; assay: T-maze continuous alternation task; type: in vivo
Method: as §1, §2, §3
Experimental design and drug application: Animals were randomly divided into three experimental groups (6-9 mice per group) as follows: vehicle; scopolamine hybrobromide 20 µg (50 nmol) in 1µl ICV, isocomene 8.16 µg (40 nmol) in 2µl ICV, and scopolamine hybrobromide 20 µg plus isocomene 2 µg ICV. […]

[3] = isocomene 8.16 µg ICV in mice given scopolamine 20 µg ICV
[4] = scopolamine 20 µg ICV alone, T2

Compound	inhibition (%) (acetylcholinesterase)	also measured
bisabolan E	56.9	
C/C=C(/C)C(=O)OC[C@H]1[C@@H](Cc2cc(OC)c(OC)c(OC)c2)CO[C@@H]1c1cc(OC)c(OC)c(OC)c1 [[(2S,3R,4R)-4-(3,4,5-trimethoxy-benzyl)-2-(3,4,5-trimethoxy-phenyl)tetrahydrofuran-3-yl]methyl-(2Z)-2-methylbut-2-en-oate]	-6.4	
ent-kaur-16-enic-19-acid	35.6	
C=C(C)C1COc2cc3oc(=O)ccc3cc2O1 (centres unmarked) [obliquine]	18.1	
(4a,7b,8a,9b,15a)-7,9-dihydroxy-15-{[(2Z)-2-methylbut-2-enoyl]oxy} kaur-16-en-19-oate	53.7	
C=C(CO)[C@H]1Oc2ccc(C(C)=O)cc2[C@H]1O[C@@H]1O[C@H](CO)[C@@H](O)[C@H](O)[C@H]1O (relative stereo) [1-{(2R*,3R*)-2-[1-(hydroxymethyl)vinyl]-3-(β-D-gluco-pyranosyloxy)-2,3-dihydro-1-benzofuran-5-yl}-ethanone]	-0.6	
C/C=C(/C)C(=O)OC[C@H]1[C@@H](Cc2ccc(OC)c(OC)c2)CO[C@@H]1c1ccc(OC)c(OC)c1 [[(2S,3R,4R)-4-(3,4-dimethoxy-benzyl)-2-(3,4-dimethoxy-phenyl)tetrahydrofuran-3-yl]methyl-(2Z)-2-methylbut-2-en-oate]	17.5	
isocomene	39.6	discrimination index [1, 3]: potently increased; exploration ratio [1, 3]: potently increased; alternation rate ([2]; 8.16 µg isocomene ICV alone, mean ± SEM, control mice 52 ± 2.46 %): 69.96 ± 2.42%; alternation rate [2, 3]: abolished this effect of scopolamine
bisabolan A	23.3	
1-acetyloxy-3-angeloyloxy-(4E,6E)-tetradeca-4,6-dien-8,10,12-triyne and the 4E,6Z isomer	16.5	
CN1[C@@H]2C[C@@H](OC(=O)[C@H](CO)c3ccccc3)C[C@H]1[C@@H]1O[C@@H]12 [Scopolamine, Scopolamine hydrobromide]		discrimination index [1, 4]: zero; exploration ratio [1, 4]: ~1.0; exploration time ([1]; scopolamine 20 µg ICV alone, vs vehicle-treated control mice): no significant difference; alternation rate ([2]; scopolamine 20 µg ICV alone): pronounced decrease in alternation rate
15-acetoxy-modhephene	56.4	
C=C(C)C1COc2cc3oc(=O)ccc3c(OC)c2O1 (centres unmarked) [5-methoxy-obliquin]	3.4	
β -isocomene	40.8	
CC(=O)OCC1=C[C@]2(C)CCC3[C@H](C)CCC32C1C (relative stereo) [[(1R*,3aS,6R)-1,3a,6-trimethyl-1,3a,4,5,5a,6,7,8-octahydrocyclo-penta[c]pentalen-2-yl]methylacetat]	61.8	
CC1=C[C@@H]2[C@@H](CC1)[C@@](C)(O)CC[C@H]2C(C)C [t-Cadinol]	10.3	
C[C@@H]1CC[C@@H]2C(C)(C)C[C@]3(C)CC=C[C@]123 [silphinene]	3.2	
C/C=C(/C)C(=O)OC[C@H]1[C@@H](Cc2ccc(OC)c(OC)c2)CO[C@@H]1c1cc(OC)c(OC)c(OC)c1 [[(2S,3R,4R)-4-(3,4-dimethoxy-benzyl)-2-(3,4,5-trimethoxy-phenyl)tetrahydrofuran-3-yl]methyl-(2Z)-2-methylbut-2-en-oate]	5.0	
C=C(C)C1COc2cc3oc(=O)ccc3c(O)c2O1 (centres unmarked) [5-hydroxy-obliquin]	1.9	
